SMILES strings stand for the structures.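 Compound exposure: 48 hours, 5 concentrations, 96-well plates. Abbreviation: GI50, concentration required for 50% inhibition of growth. At the TGI there is no net growth.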 Active and inactive are the calls of the source. Cut-off read from the data, not from the text of the source: active = GI50 below about 0.43 µM; inactive = the rest. Some results are limits rather than exact numbers.

Consider 20 compounds from PubChem BioAssay (NCI).

Test systems include M19-MEL melanoma; KM20L2 colon; DLD-1 colon; DMS 114 small cell lung; HOP-18 NSCLC; XF 498 CNS; LXFL 529 NSCLC; RXF-631 renal; MDA-N.
Assay in all cases: NCI-60 cell line screen, 48 h

As to `O=c1c2cccc3cccc(c4n1CCCN=4)c32`, the TGI with M19-MEL melanoma, in the test on KM20L2 colon, in the test on DLD-1 colon, with DMS 114 small cell lung, in the test on HOP-18 NSCLC and in the test on XF 498 CNS was over 100 µM in each case. Further, the TGI with LXFL 529 NSCLC and in the test on RXF-631 renal was over 100 µM each time.

In the case of `O=[N+]([O-])c1ccc(/C=C\c2ccc3c(c2)OCO3)c([N+](=O)[O-])c1`, the TGI with MDA-N was 22.4 µM.

For `Nc1ncnc2sc(Nc3ccccc3)nc12`, the TGI in the test on M19-MEL melanoma, with KM20L2 colon, in the test on DLD-1 colon, in the test with XF 498 CNS, with LXFL 529 NSCLC and in the test on RXF-631 renal was over 100 µM each time.

Consider `c1ccc2c(c1)[O][Sn][O]2`, for which the result in the test on KM20L2 colon, in the test on HOP-18 NSCLC, in the test with LXFL 529 NSCLC and in the test with RXF-631 renal was inactive. Moreover, in the test with DMS 114 small cell lung, the GI50 is 8.87 µg/mL. For the same compound, the TGI with DMS 114 small cell lung was over 150 µg/mL.

In the case of `CC(C)(C)c1cc(C(OCCl)(C(F)(F)F)C(F)(F)F)c2c(c1)C(C(F)(F)F)(C(F)(F)F)OC21c2ccccc2C(=O)c2ccccc21`, the TGI with M19-MEL melanoma, in the test with KM20L2 colon, with DLD-1 colon, with DMS 114 small cell lung, in the test on HOP-18 NSCLC and in the test with XF 498 CNS was over 100 µM in each case. The TGI with LXFL 529 NSCLC and in the test on RXF-631 renal was over 100 µM in each case.

In the case of `CCOC(=O)COc1cccc2occc(=O)c12`, the TGI with M19-MEL melanoma, in the test with KM20L2 colon, in the test on DLD-1 colon, in the test on DMS 114 small cell lung, in the test on XF 498 CNS and in the test on LXFL 529 NSCLC was over 100 µM throughout.

With `COc1ccc2c3c(c(C(=O)O)oc13)C(CCC(=O)O)CC2` (centres undefined), the TGI in the test with KM20L2 colon, in the test on DLD-1 colon, in the test on DMS 114 small cell lung, in the test on HOP-18 NSCLC, in the test with XF 498 CNS and with LXFL 529 NSCLC was over 100 µM each time.

With `CC1(C)CC(O)CC(C)(C)N1.CC1(C)CC(O)CC(C)(C)N1.CC1(C)CC(O)CC(C)(C)N1.CC1(C)CC(O)CC(C)(C)N1.Cl.[Ti]`, the GI50 in the test with M19-MEL melanoma, in the test with KM20L2 colon, with DLD-1 colon, with DMS 114 small cell lung, in the test with HOP-18 NSCLC and in the test on LXFL 529 NSCLC was over 100 µM each time. Further, the GI50 with RXF-631 renal is over 100 µM. Besides, the TGI in the test with M19-MEL melanoma, in the test on KM20L2 colon, with DLD-1 colon, with DMS 114 small cell lung, in the test on HOP-18 NSCLC and with LXFL 529 NSCLC was over 100 µM in each case. Further, the TGI in the test on RXF-631 renal is over 100 µM.

For `O=S(=O)(Cc1ccccc1)SCc1ccccc1`, the TGI with M19-MEL melanoma was determined as 53.9 µM; in the test on KM20L2 colon, 40.1 µM; in the test on DLD-1 colon, 21.9 µM; in the test on DMS 114 small cell lung, 32 µM; in the test on HOP-18 NSCLC it was 84.3 µM; in the test with RXF-631 renal, 36.4 µM.

Regarding `Nc1nc(-c2ccccc2)cc(-c2cc(Cl)ccc2O)n1`, the TGI in the test on KM20L2 colon, in the test with DLD-1 colon, with DMS 114 small cell lung, with HOP-18 NSCLC, in the test with LXFL 529 NSCLC and in the test with RXF-631 renal was over 100 µM each time.

With `NC(=O)C(=O)Cc1nc2ccccc2s1`, the TGI in the test with M19-MEL melanoma, in the test on KM20L2 colon, with DMS 114 small cell lung, in the test on HOP-18 NSCLC, with XF 498 CNS and with LXFL 529 NSCLC was over 100 µM throughout.

As for `Cc1cc2c(cc1C)[n+](=O)c(C(=O)/C=C/c1ccccc1[N+](=O)[O-])c(C)n2[O-]`, the TGI in the test on M19-MEL melanoma is over 100 µM; in the test with KM20L2 colon, over 100 µM; in the test with DLD-1 colon, over 100 µM; with DMS 114 small cell lung, 49.1 µM; in the test on HOP-18 NSCLC it was over 93.6 µM; in the test on XF 498 CNS, 37.7 µM. Moreover, the TGI with LXFL 529 NSCLC and in the test on MDA-N was over 100 µM throughout.

For `CC(=O)c1c(O)c2c([nH]c1=O)CCCC2`, the TGI is 44.3 µM in the test on M19-MEL melanoma; over 100 µM in the test with KM20L2 colon; over 100 µM in the test with DLD-1 colon; over 100 µM in the test on DMS 114 small cell lung; over 100 µM in the test on HOP-18 NSCLC; over 100 µM in the test with XF 498 CNS. Moreover, the TGI is over 100 µM with LXFL 529 NSCLC and 59.2 µM with RXF-631 renal.

On to `CC1=C(C(=O)CC(=O)C(=O)Nc2ccccc2C)Sc2ccccc2N1`, for which the TGI was over 100 µM in the test with M19-MEL melanoma, over 100 µM in the test on KM20L2 colon, over 67.9 µM in the test on DLD-1 colon and over 100 µM with HOP-18 NSCLC.

As for `Cn1c(CC(O)c2nc3ccccc3n2C)nc2ccccc21` (centres undefined), the TGI in the test with MDA-N was over 100 µM.

In the case of `Cc1csc(CCC(N)C(=O)O)n1` (centres undefined), the TGI in the test with M19-MEL melanoma, in the test with DLD-1 colon, with HOP-18 NSCLC and with LXFL 529 NSCLC was over 100 µM each time.

In turn, `C=CC(C)(O)CCC1C(=C)C(O)CC2C(C)(C)CCCC12C` (centres undefined) came in with a TGI in the test on MDA-N of 34.6 µM.

As to `Cc1cc(OC(=O)c2c(C)cc(OC(=O)c3c(C)cc(O)cc3O)cc2O)cc(O)c1C(=O)O`, the TGI in the test on M19-MEL melanoma, in the test with KM20L2 colon, in the test on DLD-1 colon, with DMS 114 small cell lung, in the test on XF 498 CNS and with LXFL 529 NSCLC was over 100 µM each time. The compound further yielded a TGI in the test with RXF-631 renal of over 100 µM.

With `COc1cc2c(cc1OC)C(SC)C(=O)N(Cc1cccc(OC)c1OC)CC2` (centres undefined), the TGI in the test on M19-MEL melanoma is 22.3 µM; in the test on KM20L2 colon it was over 100 µM; with DLD-1 colon, over 100 µM; in the test on DMS 114 small cell lung it was 5.49 µM; with HOP-18 NSCLC, over 100 µM; with LXFL 529 NSCLC it was 39.5 µM. This compound also showed a TGI in the test on MDA-N of 1.53 µM.

In the test on MDA-N, `CCC1=C(c2ccc(OC)cc2)CC[C@]2(CCNC2=O)[C@@H]1C` gave a TGI of 58.3 µM.
